In article PMC5518293, “An Iterative Module in the Azalomycin F Polyketide Synthase Contains a Switchable Enoylreductase Domain” (Angewandte Chemie (International Ed. in English), 2017):

Target: T1, AzlA (Streptomyces sp. 211726, UniProt A0A1W6GWW1)
T1 construct: recombinant multienzyme, loading module (ACPL) plus extension module 1 (KS-AT-DH-ER-KR-ACP); mutant stated expressed in E. coli BAP1, holo-ACP1
Test: one-pot reconstitution, LC-ESI-HRMS of acyl-ACP1 and of hydrolysed products
Format: biochemical
Settings: extender unit; with Azl4, Azl5, 4-guanidinobutyric acid and added stand-alone holo-ACP1

one-pot reconstitution, LC-ESI-HRMS of acyl-ACP1 and of hydrolysed products: recruits malonyl‐CoA as extender unit
Compound: CC(C)(COP(=O)(O)OP(=O)(O)OC[C@H]1O[C@@H](n2cnc3c(N)ncnc32)[C@H](O)[C@@H]1OP(=O)(O)O)[C@@H](O)C(=O)NCCC(=O)NCCSC(=O)CC(=O)O [malonyl‐CoA]
